Results taken from USRE38257E1, “Piperdine derivatives and hypotensives containing the same” (Ajinomoto Co., Inc., priority 1988, dated 2003).

Test system: male spontaneously hypertensive rats
Assay: Decrease in systolic blood pressure in spontaneously hypertensive rats after intravenous bolus injection, indirect (tail-cuff) method
Type: in vivo, rat
Conditions: for Decrease in systolic blood pressure (mmHg) time after administration (hour) 0.5: 0.5 hour after administration; for Decrease in systolic blood pressure (mmHg) time after administration (hour) 4: 4 hours after administration
Procedure: As test animals, four male spontaneously hypertensive rats (weight 400 to 440 g) that were sufficiently adapted for feeding and in which hypertension was confirmed were used.
Physiological saline aqueous solution containing 2.5% Nicolle and 2.5% ethanol of sample was intravenously administered by bolus injection at a dose of 1 ml per 1 kg of body weight. Systolic blood pressure after administration was measured by the indirect (tail-cuff) method.

Row | Compound | Decrease in systolic blood pressure (mmHg) time after administration (hour) 0.5 (dose 3 mg/kg i.v. bolus) | Decrease in systolic blood pressure (mmHg) time after administration (hour) 4 (dose 3 mg/kg i.v. bolus) | Decrease in systolic blood pressure (mmHg) time after administration (hour) 0.5 (dose 10 mg/kg i.v. bolus) | Decrease in systolic blood pressure (mmHg) time after administration (hour) 4 (dose 10 mg/kg i.v. bolus) | Decrease in systolic blood pressure (mmHg) time after administration (hour) 0.5 (dose 0.3 mg/kg i.v. bolus)
1 | COc1ccc(C(=O)CCCN2CCC(=C3c4ccccc4CSc4ccccc43)CC2)cc1OC.Cl [Example 229, 4-(4-(5H-Dibenzo[a,d]thiepin-5-ylidene)-1-piperidinyl)-3+,4+-dimethoxybutyrophenone hydrochloride] | −77 mmHg | −14 mmHg |  |  | 
2 | COc1cccc(C=CC(=O)N2CCC(=C3c4ccccc4C=Cc4ccccc43)CC2)c1OC [Example 192, 4-(5H-Dibenzo[a,d]cyclohepten-5-ylidene)-1-(2-dimethoxycinnamoyl)piperidine] |  |  | −25 mmHg | −36 mmHg | 
3 | Cl.O=C(CCCN1CCC(=C2c3ccccc3C=Cc3ccccc32)CC1)N1CCOCC1 [Example 245, 1-(4-(4-(5H-Dibenzo[a,d]cyclohepten-5-ylidene)-1-piperidinyl)butanoyl)morpholine hydrochloride] |  |  | −34 mmHg | −10 mmHg | 
4 | Cl.O=C(CCCN1CCC(=C2c3ccccc3C=Cc3ccccc32)CC1)N1CCCCC1 [Example 203, 1-(4-(4-(5H-Dibenzo[a,d]cyclohepten-5-ylidene)-1-piperidinyl)butanoyl)piperidine hydrochloride] | −123 mmHg | −58 mmHg |  |  | 
5 | O=C(C1CCc2ccccc2C1)N1CCC(=C2c3ccccc3C=Cc3ccccc32)CC1 (stereo not shown) [Example 224, 4-(5H-Dibenzo[a,d]cyclohepten-5-ylidene)-1-(1,2,3,4-tetrahydro-2-naphthoyl)piperidine] |  |  | −69 mmHg | −61 mmHg | 
6 | C1=Cc2ccccc2C(=C2CCN(CCCCC3CCOCC3)CC2)c2ccccc21.Cl [Example 305, 4-(4-(4-(5H-Dibenzo[a,d]cyclohepten-5-ylidene)-1-piperidinyl)-1-butyl)tetrahydropyran hydrochloride] |  |  | −95 mmHg | −9 mmHg | 
7 | COC(=O)C1(CCCCCN2CCC(=C3c4ccccc4C=Cc4ccccc43)CC2)CCCCC1.Cl [Example 313, 1-(5-(4-(5H-Dibenzo[a,d]cyclohepten-5-ylidene)-1-piperidinyl)-1-pentyl)-1-methoxycarbonylcyclohexane hydrochloride] |  |  | −154 mmHg | −85 mmHg | 
8 | Cl.Fc1c(F)c(F)c(CN2CCC(=C3c4ccccc4C=Cc4ccccc43)CC2)c(F)c1F [Example 120, 4-(5H-Dibenzo[a,d]cyclohepten-5-ylidene)-1-pentafluorobenzylpiperidine hydrochloride] | −17 mmHg | −12 mmHg |  |  | 
9 | CC(=O)N1CCC(C=CCCCN2CCC(=C3c4ccccc4C=Cc4ccccc43)CC2)CC1.Cl.Cl [Example 321, 1-(N-Acetyl-4-piperidinyl)-5-(4-(5H-dibenzo[a,d]cyclohepten-5-ylidene)-1-piperidinyl)-1-pentene dihydrochloride] |  |  | −60 mmHg | −4 mmHg | 
10 | Cl.O=C(CCN1CCC(=C2c3ccccc3C=Cc3ccccc32)CC1)OC1CCCCC1 [Example 236, Cyclohexyl 3-(4-(5H-Dibenzo[a,d]cyclohepten-5-ylidene)-1-piperidinyl)propionate hydrochloride] |  |  | −10 mmHg | −15 mmHg | 
11 | Cl.O=C(Nc1ccc(C=CCN2CCC(=C3c4ccccc4C=Cc4ccccc43)CC2)cc1)C(F)(F)F [Example 380, 4-(5H-Dibenzo[a,d]cyclohepten-5-ylidene)-1-(4-trifluoroacetylaminocinnamyl)piperidine hydrochloride] |  |  |  |  | −141 mmHg
12 | 5-(4-(5H-Dibenzo[a,d]cyclohepten-5-ylidene)-1-piperidine hydrochloride [Example 116] |  |  | −36 mmHg | −12 mmHg | 
13 | Cl.Cl.Nc1cccc(CN2CCC(=C3c4ccccc4C=Cc4ccccc43)CC2)c1 [Example 139, 1-(3-Aminobenzy)-4-(5H-Dibenzo[a,d]cyclohepten-5-ylidene)piperidine dihydrochloride] |  |  | −139 mmHg | −89 mmHg | 
14 | COC(=O)C1(CCCN2CCC(=C3c4ccccc4C=Cc4ccccc43)CC2)CCCCC1.Cl [Example 314, 1-(3-(4-(5H-Dibenzo[a,d]cyclohepten-5-ylidene)-1-piperidinyl)-1-propyl)-1-methoxycarbonylcyclohexane hydrochloride] |  |  | −61 mmHg | −11 mmHg | 
15 | CCOC(=O)c1ccc(C=CCN2CCC(=C3c4ccccc4C=Cc4ccccc43)CC2)cc1.Cl [Example 382, 4-(5H-Dibenzo[a,d]cyclohepten-5-ylidene)-1-(4-ethoxycarbonylcinnamyl)piperidine hydrochloride] | −129 mmHg | −74 mmHg |  |  | 
16 | COC(=O)c1c(C)nc(CCCCN2CCC(=C3c4ccccc4C=Cc4ccccc43)CC2)c(C(=O)OC)c1C.Cl [Example 323, 2-(4-(4-(5H-Dibenzo[a,d]cyclohepten-5-ylidene)-1-piperidinyl)-1-butyl)-3,4-5,6-tetramethylpyridine-3,5-dicarboxylate hydrochloride] |  |  | −117 mmHg | −11 mmHg | 
17 | O=C(CCCC1CCCCC1)N1CCC(=C2c3ccccc3C=Cc3ccccc32)CC1 [Example 157, 1-(4-Cyclohexylbutanoyl)-4-(5H-dibenzo[a,d]cyclohepten-5-ylidene)piperidine] |  |  | −32 mmHg | −13 mmHg | 
18 | Cl.Cl.Nc1ccc(CCCN2CCC(=C3c4ccccc4C=Cc4ccccc43)CC2)cc1 [Example 248, 1-(4-Aminophenyl)-3-(4-(5H-Dibenzo[a,d]cyclohepten-5-ylidene)-1-piperidinyl)propane dihydrochloride] |  |  | −101 mmHg | −92 mmHg | 
19 | CC(=O)N1CCCC(CCCN2CCC(=C3c4ccccc4C=Cc4ccccc43)CC2)C1.Cl (stereo not shown) [Example 280, 1-(n-Acetyl-3-piperidinyl)-3-(4-(5H-Dibenzo[a,d]cyclohepten-5-ylidene)-1-piperidinyl)propane hydrochloride] |  |  | −50 mmHg | −11 mmHg | 
20 | CN1CCCC(CCCCN2CCC(=C3c4ccccc4C=Cc4ccccc43)CC2)C1.Cl.Cl (stereo not shown) [Example 295, 4-(4-(5H-Dibenzo[a,d]cyclohepten-5-ylidene)-1-piperidinyl)-1-(N-methyl-3-piperidinyl)butane dihydrochloride] | −36 mmHg | 1 mmHg |  |  | 
21 | CCOC(=O)N1CCCC(CCCCN2CCC(=C3c4ccccc4C=Cc4ccccc43)CC2)C1.Cl (stereo not shown) [Example 312, 4-(4-(5H-Dibenzo[a,d]cyclohepten-5-ylidene)-1-piperidinyl)-1-(N-ethoxycarbonyl-3-piperidinyl)butane hydrochloride] |  |  | −115 mmHg | −11 mmHg | 
22 | Cl.c1ccc2c(c1)Oc1ccccc1C2=C1CCN(CCCCC2CCCCC2)CC1 [Example 181] |  |  | −56 mmHg | −27 mmHg | 
23 | C1=Cc2ccccc2C(=C2CCN(CC3CCCCC3)CC2)c2ccccc21.Cl [Example 7, 1-Cyclohexylmethyl-4-(5H-dibenzo[a,d]cyclohepten-5-ylidene)piperidine hydrochloride] |  |  | −57 mmHg | −15 mmHg | 
24 | C1=Cc2ccccc2C(=C2CCN(Cc3ccccn3)CC2)c2ccccc21.Cl.Cl [Example 161, 4-(5H-Dibenzo[a,d]cyclohepten-5-ylidene)-1-(2-Picolyl)piperidine dihydrochloride] |  |  | −64 mmHg | −12 mmHg | 
25 | CC(C)C(C#N)(CCCN1CCC(=C2c3ccccc3C=Cc3ccccc32)CC1)c1cccc(C(F)(F)F)c1.Cl (stereo not shown) [Example 60, 5-(4-(5H-Dibenzo[a,d]cyclohepten-5-ylidene)-1-piperidinyl)-2-isopropyl-2-(3-trifluoromethylphenyl)valeronitrile hydrochloride] |  |  | −121 mmHg | −48 mmHg | 
